The record followed here is patent publication US10376550B2, “Nutraceutical composition and methods of use” (Dacy Tech Party Ltd., priority 2007, dated 2019).

The subject of assay [1] is prostaglandin PGE2 levels. In words: PGE2 levels in IL-1β stimulated NHAC cells. The class given is cell-based. The following applies: IL-1β 10 ng/ml, 24 hours, fractions ≤64 μg/ml. As for the experimental part: (§1) To study the anti-inflammatory activities, assays Fr 1, Fr i, Fr V and Fr Vi were selected and tested at a concentration of ≤64 μg/ml. The assays carried out to measure the 1) Nitric Oxide (NO) levels, 2) prostaglandin PGE2 levels, 3) prostaglandin PGF2α levels. NHAC cells at passage 3, were stimulated first with proinflammatory cytokine IL-1β at a predetermined concentration 10 ng/ml overnight, NHAC Cells were then treated with fractions in the presence of IL-1β 10 ng/ml for 24 hours and cell culture supernatant was collected to measure NO, PGE2 and PGF2α levels. Griess Reagent Kit for Nitrite Determination (Molecular Probes, Invitrogen) was used as per kit instructions. For estimation of PGs, High Sensitivity PGE2 & PGF2α EIA kits (Assay Designs Inc.) were used.

For assay [2], the system named is prostaglandin PGF2α levels. In words: PGF2α levels in IL-1β stimulated NHAC cells. The class given is cell-based. The conditions noted are these: IL-1β 10 ng/ml, 24 hours, fractions 64-32 μg/ml. The method, then:
as §1

Turning to `COc1ccc2c(c1)c(CC(=O)O)c(C)n2C(=O)c1ccc(Cl)cc1` [Indomethacin], the “IL-1β induced PGE2 levels” value in assay [1] was “significantly reduced”. The “IL-1β induced PGF2α levels” value in assay [2] is reported as “significantly reduced”.
